Experimental data as given in US20250188092A1, “RIFAMYCIN ANALOGS” (THE REGENTS OF THE UNIVERSITY OF MICHIGAN, priority 2021, published 2025).
Converted amounts (≈) assume the structure as drawn. Read-outs that look alike come from different tables or passages of the source.

What was measured:
[1] = system: M. tuberculosis transformed with luxABCDE; experiment: microbe, parasite or virus in culture; assay type: cell-based, Mycobacterium tuberculosis; settings: for MBC: ≥99% reduction in luminescence, read-out: MBC99 Day 7 (Lux Assay) MBC
[2] = system: non-replicating cultures of M. tuberculosis H37Rv transformed with lux ABCDE; experiment: microbe, parasite or virus in culture; assay type: cell-based, Mycobacterium tuberculosis; settings: for MIC90 LORA/MABA: ratio of LORA MIC90 to MABA MIC90
[3] = Mycobacterium tuberculosis, 168 h
[4] = Mycobacterium tuberculosis, H37RV, […], ≥90% reduction in luminescence, read-out: MIC90 LORA

Structure (SMILES)	MBC [1, 3] [µM]	MIC [2, 4] [µM]	MBC99 Day 7 (Lux Assay) MBC Rel to RMP [1]	MIC90 LORA Rel to RMP [2]	MIC90 [2, 4] [µM]	MIC90 LORA/MABA [2]	MBC [1] [µM]	MIC90 ([2]; […], ≥90% reduction in luminescence, read-out: MIC90 LORA) [µM]
CO[C@H]1/C=C/O[C@@]2(C)Oc3c(C)c(O)c4c(=O)c(c5oc6cc(N7CCC(C(=O)O)CC7)cc(OCc7ccc(CN8CCOCC8)cc7)c6nc-5c4c3C2=O)NC(=O)/C(C)=C\C=C\[C@H](C)[C@H](O)[C@@H](C)[C@@H](O)[C@@H](C)[C@H](OC(C)=O)[C@@H]1C [Compound 17k]	> 0.1	> 0.02						
CO[C@H]1/C=C/O[C@@]2(C)Oc3c(C)c(O)c4c(=O)c(c5oc6cccc(OCc7cccc(CN8CCN(C(=O)Cc9ccccc9)CC8)c7)c6nc-5c4c3C2=O)NC(=O)/C(C)=C\C=C\[C@H](C)[C@H](O)[C@@H](C)[C@@H](O)[C@@H](C)[C@H](OC(C)=O)[C@@H]1C [Compound 11g, (7S,9E,11S,12R,13S,14R,15R,16R,17S,18S,19E,21Z)-2,15,17-Trihydroxy-11-methoxy-3,7,12,14,16,18,22-heptamethyl-6,23,37-trioxo-32-[(3-{[4-(2-phenylacetyl)-piperazin-1-yl]methyl}phenyl)methoxy]-8,27,38-trioxa-24,34-diazahexacyclo[23.11.1.1^4,7.0^5,36.0^26,35.0^28,33]octatriaconta-1(36)2,4,9,19,21,25,28,30,32,34-undecaen-13-yl acetate]	0.044		0.06	1.1	0.131	12		
CO[C@H]1/C=C/O[C@@]2(C)Oc3c(C)c(O)c4c(=O)c(c5oc6cc(N7CCN(CC(=O)O)CC7)cc(C)c6nc-5c4c3C2=O)NC(=O)/C(C)=C\C=C\[C@H](C)[C@H](O)[C@@H](C)[C@@H](O)[C@@H](C)[C@H](OC(C)=O)[C@@H]1C [Compound 29h, 2-{4-[(7S,9E,11S,12R,13S,14R,15R,16R,17S,18S,19E,21Z)-13-(acetyloxy)-2,15,17-trihydroxy-11-methoxy-3,7,12,14,16,18,22,32-octamethyl-6,23,37-trioxo-8,27,38-trioxa-24,34-diazahexacyclo[23.11.1.1^4,7.0^5,36.0^26,35.0^28,33]octatriaconta-1,3,5(36)9,19,21,25,28,30,32,34-undecaen-30-yl]piperazin-1-yl}acetic acid]	> 0.1			5.0	0.133 (≈ 0.125 µg/mL)	7.2		
CCOC(=O)N1CCN(c2cc(C)c3nc4c5c6c7c(C)c(O)c5c(=O)c(c-4oc3c2)NC(=O)/C(C)=C\C=C\[C@H](C)[C@H](O)[C@@H](C)[C@@H](O)[C@@H](C)[C@H](OC(C)=O)[C@H](C)[C@@H](OC)/C=C/O[C@@](C)(O7)C6=O)CC1 [Compound 26h, Ethyl 4-[(7S,9E,11S,12R,13S,14R,15R,16R,17S,18S,19E,21Z)-13-(acetyloxy)-2,15,17-trihydroxy-11-methoxy-3,7,12,14,16,18,22,32-octamethyl-6,23,37-trioxo-8,27,38-trioxa-24,34-diazahexacyclo[23.11.1.1^4,7.0^5,36.0^26,35.0^28,33]octatriaconta-1(36)2,4,9,19,21,25,28,30,32,34-undecaen-30-yl]piperazine-1-carboxylate]	0.028 (≈ 0.0267 µg/mL)		0.06	0.05	0.0094 (≈ 0.00898 µg/mL)	1.9		
CO[C@H]1/C=C/O[C@@]2(C)Oc3c(C)c(O)c4c(=O)c(c5oc6cccc(OCc7ccc(CN8CCN(C)CC8)cc7)c6nc-5c4c3C2=O)NC(=O)/C(C)=C\C=C\[C@H](C)[C@H](O)[C@@H](C)[C@@H](O)[C@@H](C)[C@H](OC(C)=O)[C@@H]1C [Compound 16e, (7S,9E,11S,12R,13S,14R,15R,16R,17S,18S,19E,21Z)-2,15,17-trihydroxy-11-methoxy-3,7,12,14,16,18,22-heptamethyl-32-({4-[(4-methylpiperazin-1-yl)methyl]phenyl}methoxy)-6,23,37-trioxo-8,27,38-trioxa-24,34-diazahexacyclo[23.11.1.1^4,7.0^5,36.0^26,35.0^28,33]octatriaconta-1,3,5(36)9,19,21,25,28,30,32,34-undecaen-13-yl acetate]	0.06		0.14	1.3	0.036	5.6		
CO[C@H]1/C=C/O[C@@]2(C)Oc3c(C)c(O)c4c(=O)c(c5oc6cc(N7CCN(C(=O)c8ccc(-c9ccc(C(N)=O)cc9)cc8)CC7)cc(OCc7ccc(CN8CCOCC8)cc7)c6nc-5c4c3C2=O)NC(=O)/C(C)=C\C=C\[C@H](C)[C@H](O)[C@@H](C)[C@@H](O)[C@@H](C)[C@H](OC(C)=O)[C@@H]1C [Compound 17t, (7S,9E,11S,12R,13S,14R,15R,16R,17S,18S,19E,21Z)-30-(4-{[4-(4-carbamoylphenyl)-phenyl]carbonyl}piperazin-1-yl)-2,15,17-trihydroxy-11-methoxy-3,7,12,14,16,18,22-heptamethyl-32-{[4-(morpholin-4-ylmethyl)phenyl]methoxy}-6,23,37-trioxo-8,27,38-trioxa-24,34-diazahexacyclo[23.11.1.1^4,7.0^5,36.0^26,35.0^28,33]octatriaconta-1,3,5(36)9,19,21,25,28,30,32,34-undecaen-13-yl acetate]			0.12	1.2		1.8	0.086	0.059
CO[C@H]1/C=C/O[C@@]2(C)Oc3c(C)c(O)c4c(=O)c(c5oc6cccc(OCc7ccc(CN8CCOCC8)cc7)c6nc-5c4c3C2=O)NC(=O)/C(C)=C\C=C\[C@H](C)[C@H](O)[C@@H](C)[C@@H](O)[C@@H](C)[C@H](OC(C)=O)[C@@H]1C [Compound 16d, (7S,9E,11S,12R,13S,14R,15R,16R,17S,18S,19E,21Z)-2,15,17-Trihydroxy-11-methoxy-3,7,12,14,16,18,22-heptamethyl-32-({4-[(morpholin-4-yl)methyl]phenyl}methoxy)-6,23,37-trioxo-8,27,38-trioxa-24,34-diazahexacyclo[23.11.1.1^4,7.0^5,36.0^26,35.0^28,33]octatriaconta-1(36)2,4,9,19,21,25,28,30,32,34-undecaen-13-yl acetate]	0.092		0.20	0.62	0.031	8.4		
CO[C@H]1/C=C/O[C@@]2(C)Oc3c(C)c(O)c4c(=O)c(c5oc6cc(N7CCN(CCCCCCO[C@@H]8COc9nc([N+](=O)[O-])cn9C8)CC7)cc(C)c6nc-5c4c3C2=O)NC(=O)/C(C)=C\C=C\[C@H](C)[C@H](O)[C@@H](C)[C@@H](O)[C@@H](C)[C@H](OC(C)=O)[C@@H]1C [Compound 29e, (7S,9E,11S,12R,13S,14R,15R,16R,17S,18S,19E,21Z)-2,15,17-Trihydroxy-11-methoxy-3,7,12,14,16,18,22,32-octamethyl-30-[4-(6-{[(6S)-2-nitro-5H,6H,7H-imidazo[2,1-b][1,3]oxazin-6-yl]oxy}hexyl)piperazin-1-yl]-6,23,37-trioxo-8,27,38-trioxa-24,34-diazahexacyclo[23.11.1.1^4,7.0^5,36.0^26,35.0^28,33]octatriaconta-1(36)2,4,9,19,21,25,28,30,32,34-undecaen-13-yl acetate]	0.05		0.11	0.03	0.008	4.0		
CO[C@H]1/C=C/O[C@@]2(C)Oc3c(C)c(O)c4c(=O)c(c5oc6cc(N7CCCC(C(=O)Nc8ccc(Cl)cc8)C7)cc(C)c6nc-5c4c3C2=O)NC(=O)/C(C)=C\C=C\[C@H](C)[C@H](O)[C@@H](C)[C@@H](O)[C@@H](C)[C@H](OC(C)=O)[C@@H]1C (stereo partly drawn) [Compound 28, (7S,9E,11S,12R,13S,14R,15R,16R,17S,1S,19E,21Z)-30-{3-[(4-Chlorophenyl)carbamoyl]piperidin-1-yl}-2,15,17-trihydroxy-11-methoxy-3,7,12,14,16,18,22,32-octamethyl-6,23,37-trioxo-8,27,38-trioxa-24,34-diazahexacyclo[23.11.1.1^4,7.0^5,36.0^26,35.0^28,33]octatriaconta-1(36)2,4,9,19,21,25,28,30,32,34-undecaen-13-yl acetate]	0.025		0.05	0.04	0.0092	2.1		
CO[C@H]1/C=C/O[C@@]2(C)Oc3c(C)c(O)c4c(=O)c(c5oc6cc(N7CCN(C(=O)c8ccc9occc9c8)CC7)cc(C)c6nc-5c4c3C2=O)NC(=O)/C(C)=C\C=C\[C@H](C)[C@H](O)[C@@H](C)[C@@H](O)[C@@H](C)[C@H](OC(C)=O)[C@@H]1C [Compound 29c, (7S,9E,11S,12R,13S,14R,15R,16R,17S,18S,19E,21Z)-30-[4-(1-Benzofuran-5-carbonyl)piperazin-1-yl]-2,15,17-trihydroxy-11-methoxy-3,7,12,14,16,18,22,32-octamethyl-6,23,37-trioxo-8,27,38-trioxa-24,34-diazahexacyclo[23.11.1.1^4,7.0^5,36.0^26,35.0^28,33]octatriaconta-(36)2,4,9,19,21,25,28,30,32,34-undecaen-13-yl acetate]	0.048		0.10	0.05	0.0096	2.0		
